In brackets after ≈: the same amount, converted by molar mass. Like-named read-outs stand apart in the source and are kept apart here.
Columns and labels:
AChE = AChE (Homo sapiens, UniProt P22303); format: biochemical
Method: Inhibition potency of the test compounds against AChE was determined using Ellman’s method. Enzyme solutions were prepared in gelatin solution (1%, w/v), at the concentration of 2.5 units/mL. […] AChE solution (20 µL/well) and test solution (20 µL/well) were added to phosphate buffer solution (140 µL/well, pH 8.0 ± 0.1), and incubated at 25 °C for 5 min. […] The production of the yellow anion was recorded by multimode microplate reader for 10 min at 412 nm. As a control, an identical solution of the enzyme without the inhibitor was processed. The control and the inhibitor readings were corrected with blank-readings. All processes were assayed in four independent determinations.

COX-2 = target: T1, COX-2 (Homo sapiens, UniProt P35354); assay: Fluorimetric COX-2 inhibition screening kit (BioVision); format: biochemical
T1 construct: purchased BioVision (Milpitas, CA, USA) K547-100
T1 sequence (P35354 18-604): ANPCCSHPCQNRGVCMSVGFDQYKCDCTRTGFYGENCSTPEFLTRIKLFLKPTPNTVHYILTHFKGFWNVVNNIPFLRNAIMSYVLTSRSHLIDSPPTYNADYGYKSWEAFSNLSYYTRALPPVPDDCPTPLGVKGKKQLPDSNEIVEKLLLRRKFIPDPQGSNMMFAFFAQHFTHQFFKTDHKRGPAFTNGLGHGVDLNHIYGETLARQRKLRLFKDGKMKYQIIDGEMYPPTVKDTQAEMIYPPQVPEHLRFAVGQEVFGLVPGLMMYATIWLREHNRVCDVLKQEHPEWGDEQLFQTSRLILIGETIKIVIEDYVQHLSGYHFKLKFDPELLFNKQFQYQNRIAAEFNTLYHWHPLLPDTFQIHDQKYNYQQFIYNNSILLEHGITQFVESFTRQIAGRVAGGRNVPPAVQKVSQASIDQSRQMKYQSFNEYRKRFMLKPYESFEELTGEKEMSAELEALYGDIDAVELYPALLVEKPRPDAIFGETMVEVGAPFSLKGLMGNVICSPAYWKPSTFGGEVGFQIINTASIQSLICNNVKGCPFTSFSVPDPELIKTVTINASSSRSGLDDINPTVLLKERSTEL
Method: (§1) Inhibitory potency of the compounds on COX-1 and COX-2 enzymes was determined by using fluorimetric COX-1 and COX-2 inhibition screening kits from BioVision (Milpitas, CA, USA). The experimental protocol as described in the guides provided by the supplier was followed. All of the pipetting were performed using a robotized system to increase speed, accuracy and precision. Fluorescence intensities of the samples were kinetically measured at 25 °C for 5–10 min by monitoring emissions at 587 nm after excitation at 535 nm. Two appropriate points (T1 and T2) in the linear range of the plot were chosen and the corresponding fluorescence values (RFU1 and RFU2) were obtained. The slope for all samples including Enzyme Control (EC) was calculated by dividing the net ΔRFU (RFU2 − RFU1) values by the time ΔT (T2 − T1). Percentage of relative inhibition was calculated by using the following equation:% Relative inhibition = (Slope of EC − Slope of S/Slope of EC) × 100 where S is the term representing the tested compound [51, 52]. […] The IC50 values were calculated using the plots of the enzyme activity against concentrations by applying regression analyses.

human recombinant MAO-A = target: T2, human recombinant MAO-A (Homo sapiens, UniProt P21397); assay: MAO inhibition assay (kynuramine, fluorimetric); format: biochemical
T2 sequence (P21397 1-527): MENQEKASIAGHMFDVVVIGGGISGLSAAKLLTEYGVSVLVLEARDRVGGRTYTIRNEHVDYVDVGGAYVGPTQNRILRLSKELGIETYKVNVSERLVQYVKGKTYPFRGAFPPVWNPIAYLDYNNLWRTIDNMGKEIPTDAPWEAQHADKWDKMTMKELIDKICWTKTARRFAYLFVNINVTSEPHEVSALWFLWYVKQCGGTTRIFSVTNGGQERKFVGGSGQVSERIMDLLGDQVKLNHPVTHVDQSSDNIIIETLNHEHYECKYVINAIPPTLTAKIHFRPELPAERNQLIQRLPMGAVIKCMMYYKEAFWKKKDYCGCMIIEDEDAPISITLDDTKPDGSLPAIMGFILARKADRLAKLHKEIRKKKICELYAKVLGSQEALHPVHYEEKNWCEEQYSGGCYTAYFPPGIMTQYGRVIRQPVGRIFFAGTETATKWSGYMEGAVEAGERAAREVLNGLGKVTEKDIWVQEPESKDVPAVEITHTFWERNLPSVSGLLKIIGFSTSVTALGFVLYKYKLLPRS
Method: (§2) Enzyme activity assays were performed according to the procedure reported by Matsumoto et al. with slight modifications. In order to prevent the destructive effect of light on MAO enzymes, the assays were performed in 96-well black plates. Phosphate buffer solution (0.1 M, pH = 7.4) was used for preparation of stock solutions (5 mg/mL) of both human recombinant MAO-A and MAO-B enzymes. […] The addition of the test compound solution was followed by addition of either MAO-A or MAO-B enzyme (50 μL/well) solutions. After 10 min of incubation at 37 °C, kynuramine (50 μL/well) was added and enzyme-substrate reaction was initiated. The plate was incubated for 20 min at 37 °C and then reaction was terminated by addition of 2 N NaOH (75 μL/well). The fluorimetric reads from the top was performed at 310 nm excitation and 380 nm emission wavelengths.

human recombinant MAO-B = target: T3, human recombinant MAO-B (Homo sapiens, UniProt P27338); assay: MAO inhibition assay (kynuramine, fluorimetric); format: biochemical
T3 sequence (P27338 1-520): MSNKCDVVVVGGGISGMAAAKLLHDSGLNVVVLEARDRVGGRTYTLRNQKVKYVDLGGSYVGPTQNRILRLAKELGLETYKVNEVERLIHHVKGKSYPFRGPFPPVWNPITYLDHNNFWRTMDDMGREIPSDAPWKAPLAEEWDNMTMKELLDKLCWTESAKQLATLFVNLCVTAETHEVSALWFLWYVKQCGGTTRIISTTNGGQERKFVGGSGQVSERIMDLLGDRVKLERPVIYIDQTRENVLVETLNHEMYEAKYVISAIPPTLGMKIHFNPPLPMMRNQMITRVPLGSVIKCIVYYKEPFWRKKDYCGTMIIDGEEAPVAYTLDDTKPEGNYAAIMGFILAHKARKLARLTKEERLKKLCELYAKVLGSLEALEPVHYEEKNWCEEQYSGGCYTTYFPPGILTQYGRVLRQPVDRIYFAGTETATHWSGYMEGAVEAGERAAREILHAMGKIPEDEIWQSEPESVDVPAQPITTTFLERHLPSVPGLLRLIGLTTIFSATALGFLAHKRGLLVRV
Method: as §2

COX-1 = target: T4, COX-1 (Ovis aries, UniProt P05979); assay: Fluorimetric COX-1 inhibition screening kit (BioVision); format: biochemical
T4 construct: purchased BioVision (Milpitas, CA, USA) K548-100
T4 sequence (P05979 25-600): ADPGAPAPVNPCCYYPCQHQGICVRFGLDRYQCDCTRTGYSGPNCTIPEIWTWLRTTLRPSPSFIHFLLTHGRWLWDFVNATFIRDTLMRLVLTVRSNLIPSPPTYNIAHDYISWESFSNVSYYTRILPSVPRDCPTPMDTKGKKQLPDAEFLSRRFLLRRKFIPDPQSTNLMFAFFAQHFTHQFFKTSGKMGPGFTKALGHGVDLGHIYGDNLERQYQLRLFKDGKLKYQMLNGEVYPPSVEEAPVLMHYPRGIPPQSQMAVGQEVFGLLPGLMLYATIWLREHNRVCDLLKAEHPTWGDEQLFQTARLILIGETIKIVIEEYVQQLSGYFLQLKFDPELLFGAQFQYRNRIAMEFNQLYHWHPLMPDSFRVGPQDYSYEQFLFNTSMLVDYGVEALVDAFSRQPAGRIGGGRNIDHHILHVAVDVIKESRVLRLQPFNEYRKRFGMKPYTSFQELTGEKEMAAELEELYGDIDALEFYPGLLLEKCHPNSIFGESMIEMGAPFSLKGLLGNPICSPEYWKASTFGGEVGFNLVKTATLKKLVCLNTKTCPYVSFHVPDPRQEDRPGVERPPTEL
Method: as §1

[1] = system: Pseudomona aeuroginosa ATCC 27853; assay: Antimicrobial broth microdilution (CLSI M07-A9); format: cell-based; conditions: Pseudomona aeuroginosa [sic] ATCC 27853
Method: Microbiological studies were performed according to CLSI reference M07-A9 broth microdilution method for bacterial strains and EUCAST definitive method EDef 7.1 for Candida species. Synthesized compounds were tested for their in vitro growth inhibitory activity against Escherichia coli ATCC 35218, Escherichia coli ATCC 25922, Staphylococcus aureus, ATCC 25923, Pseudomona aeuroginosa ATCC 27853, Enterococcus faecalis ATCC29212, Klebsiella pneumoniae ATCC700603 Listeria monocytogenes ATCC7644, Candida albicans ATCC90028, Candida glabrata ATCC 90030, Candida krusei ATCC 6258, Candida parapsilosis ATCC 22019.
The cultures were obtained from Mueller-Hinton broth (Difco) for the bacterial strains and the yeasts were maintained in Roswell Park Memorial Institute (RPMI) medium, after an overnight incubation at 37 °C for both. The inocula of the test microorganisms were adjusted to match an equivalent turbidity of a 0.5 McFarland standard, which was determined using a spectrophotometer; the final inoculum size was determined to be 0.5–2.5 × 10^5 cfu/mL for antibacterial and antifungal assays. The tests were carried out for both mediums at pH = 7 and two-fold serial dilutions were applied. The last well on the microplates, which was containing only the inoculated broth, was kept as control, and the last well with no growth of microorganism was recorded to represent the minimum inhibitory concentration (MIC50) in μg/mL. For both of the antibacterial and antifungal assays, the test compounds and reference drugs were firstly dissolved in DMSO, and further dilutions were performed to the desired concentrations of 1000, 500, 250, 125, 62.5, 31.25, 15.6, 7.8, 3.9 and 1.95 μg/mL using Mueller–Hinton broth and RPMI medium. The completed plates were incubated for 24 h, and at the end of the incubation, resazurin (20 µg/mL) was added into each well to control the growth in the wells. Final plates including microorganism strains were incubated for 2 h. MIC50 values were determined using microplate reader at […] wavelengths; MIC50 readings were performed twice for entire compounds. Chloramphenicol and ketoconazole were used as reference drugs.

Sequence of AChE (P22303 32-614): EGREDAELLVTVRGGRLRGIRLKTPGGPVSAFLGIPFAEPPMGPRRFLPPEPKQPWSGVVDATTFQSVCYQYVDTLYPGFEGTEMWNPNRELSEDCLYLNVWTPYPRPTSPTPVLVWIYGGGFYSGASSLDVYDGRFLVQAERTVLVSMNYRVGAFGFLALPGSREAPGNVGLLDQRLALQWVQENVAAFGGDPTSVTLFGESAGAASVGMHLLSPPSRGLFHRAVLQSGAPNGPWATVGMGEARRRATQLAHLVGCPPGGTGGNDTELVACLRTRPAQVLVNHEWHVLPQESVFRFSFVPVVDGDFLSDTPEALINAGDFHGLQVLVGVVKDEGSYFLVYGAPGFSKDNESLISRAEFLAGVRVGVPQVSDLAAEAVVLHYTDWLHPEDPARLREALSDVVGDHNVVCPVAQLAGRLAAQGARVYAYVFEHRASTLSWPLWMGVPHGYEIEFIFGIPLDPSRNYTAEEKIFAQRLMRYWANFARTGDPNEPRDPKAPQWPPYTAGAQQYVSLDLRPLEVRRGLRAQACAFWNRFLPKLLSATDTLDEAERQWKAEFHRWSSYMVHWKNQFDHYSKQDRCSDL

Cc1ccc(-c2nc3ccccc3n2CCN2CCOCC2)cc1 [Compound 2a, 2-(4-Methylphenyl)-1-[2-(morpholin-4-yl)ethyl]-1H-benzimidazole]
AChE Inhibition (%) (AChE; 10^-3 M): 21.80%
AChE Inhibition (%) (AChE; 10^-4 M): 21.80%
IC50 (COX-2): 58.7 µM
COX-2 Inhibition (%) (COX-2; 10^-3 M): 58.28%
COX-2 Inhibition (%) (COX-2; 10^-4 M): 56.23%
COX-2 inhibition at the initial concentrations (COX-2; 10^−3 M and 10^−4 M): more than 50%
inhibition at 10 µM (COX-2; 10^−5 M): 43.7 ± 1.07%
inhibition at 1 µM (COX-2; 10^−6 M, read-out: COX 2 Inhibition %): 40.3 ± 1.1%
inhibition at 0.1 µM (COX-2; 10^−7 M): 38.3 ± 0.92%
inhibition at 0.01 µM (COX-2; 10^−8 M): 36.2 ± 0.87%
inhibition at 0.001 µM (COX-2; 10^−9 M): 32.4 ± 0.91%
MAO-A Inhibition (%) (human recombinant MAO-A; 10^-3 M): 24.29%
MAO-A Inhibition (%) (human recombinant MAO-A; 10^-4 M): 19.15%
MAO-B Inhibition (%) (human recombinant MAO-B; 10^-3 M): 25.27%
MAO-B Inhibition (%) (human recombinant MAO-B; 10^-4 M): 16.63%
IC50 (COX-1): 56.1 µM
COX-1 Inhibition (%) (COX-1; 10^-3 M): 75.08%
COX-1 Inhibition (%) (COX-1; 10^-4 M): 71.23%
COX-1 inhibition at the initial concentrations (COX-1; 10^−3 M and 10^−4 M): more than 50%
inhibition at 10 µM (COX-1; 10^−5 M): 47.4 ± 1.08%
inhibition at 1 µM (COX-1; 10^−6 M): 40.1 ± 0.92%
inhibition at 0.1 µM (COX-1; 10^−7 M): 35.7 ± 0.97%
inhibition at 0.01 µM (COX-1; 10^−8 M): 30.5 ± 0.83%
inhibition at 0.001 µM (COX-1; 10^−9 M): 28.8 ± 0.79%

O=C(N[C@H](CO)[C@H](O)c1ccc([N+](=O)[O-])cc1)C(Cl)Cl [Chloramphenicol, reference compound]
MIC50 [1]: 250 µg/mL (≈ 774 µM)

Brc1ccc(-c2nc3ccccc3n2CCN2CCOCC2)cc1 [Compound 2g, 2-(4-Bromophenyl)-1-[2-(morpholin-4-yl)ethyl]-1H-benzimidazole]
AChE Inhibition (%) (AChE; 10^-3 M): 13.04%
AChE Inhibition (%) (AChE; 10^-4 M): 13.04%
COX-2 Inhibition (%) (COX-2; 10^-3 M): 16.30%
COX-2 Inhibition (%) (COX-2; 10^-4 M): 19.03%
MAO-A Inhibition (%) (human recombinant MAO-A; 10^-3 M): 30.85%
MAO-A Inhibition (%) (human recombinant MAO-A; 10^-4 M): 22.29%
MAO-B Inhibition (%) (human recombinant MAO-B; 10^-3 M): 38.63%
MAO-B Inhibition (%) (human recombinant MAO-B; 10^-4 M): 30.87%
COX-1 Inhibition (%) (COX-1; 10^-3 M): 29.47%
COX-1 Inhibition (%) (COX-1; 10^-4 M): 21.74%

— paper PMC6152416, “Pharmacological and Toxicological Screening of Novel Benzimidazole-Morpholine Derivatives as Dual-Acting Inhibitors” (Molecules : A Journal of Synthetic Chemistry and Natural …, 2017)
